The values below come from article PMC7503713, “GANT61 Reduces Hedgehog Molecule (GLI1) Expression and Promotes Apoptosis in Metastatic Oral Squamous Cell Carcinoma Cells” (International Journal of Molecular Sciences, 2020).

What all share (type): cell-based, human
In assay [1] the test system is HCT-116. Description: alamarBlue cytotoxicity assay, HCT-116. The following applies: HCT-116, alamarBlue, 72 h of incubation. The method, then: (§1) To assess the cytotoxicity of the GLI inhibitor GANT61 (Sigma-Aldrich, St. Louis, MO, USA) in tumor and non-tumor cell lines, an alamarBlue assay (Sigma-Aldrich Chemical Co, St. Louis, MO, USA) was performed after 72 h of exposure to the inhibitor, as described by Ahmed et al., 1994 [46]. Cells were distributed on 96-well plates at a density of 7 × 10^4 cells/mL for adhered cells, and 3 × 10^5 cells/mL for cells in suspension. All tested compounds were dissolved in DMSO, added to wells containing 100 µL of cells in complete medium, and then incubated for 72 h. Eight concentrations of GANT61 (0.19 to 50 µg/mL), Doxorubicin (Laboratory IMA S.A.I.C., Buenos Aires, Argentina), and 5-Fluorouracil (5-FU, Sigma-Aldrich, St. Louis, MO, USA), both used as positive controls at concentrations ranging from 0.03 to 5 µg/mL, were added to respective wells. Cells treated with the vehicle (0.5% DMSO) used to dilute the tested compounds were used as negative controls. Before the end of the incubation period (4 h for cell lines and 24 h for PBMCs), 20 µL of alamarBlue stock solution (resazurin, Sigma-Aldrich, St. Louis, MO, USA) was added to each well. Absorbance was measured at 570 nm (reduced) and 595 nm (oxidized) wavelengths, using a Spectramax 190 plate reader (Molecular Devices; Sunnyvale, CA, USA).
(§2) Statistical analyses were performed, using GraphPad Prism v. 6.03 (GraphPad Software, Inc., San Diego, USA). Data were analyzed according to distribution along the normal Gaussian curve. IC50 values were obtained through non-linear regression, using results from three independent experiments carried out in duplicate. Differences between groups resulting from in vitro assays were evaluated by ANOVA (analysis of variance) testing, followed by the Student–Newman–Keuls test. This study considered a level of significance, corresponding to alpha (α) or “p” value, when results were less than or equal to 5%.
For orientation: Resazurin is reduced to fluorescent resorufin, in cell work by metabolically active cells.

The test system of assay [2] is PBMC. Description: alamarBlue cytotoxicity assay, PBMC. The following applies: 72 h of incubation. The protocol: Human peripheral blood mononuclear cells (PBMC) lymphocytes and monocytes) were obtained from the peripheral blood of healthy, non-smoking volunteers aged 25–35 years. None of the volunteers had used any type of drug or medication for at least 15 days prior to collection. Blood collection (5 mL) was performed in heparinized vials by trained professionals at the Laboratory of Tissue Engineering and Immunopharmacology (LETI, IGM-FIOCRUZ, Salvador, Brazil), using sterile disposable syringes. PBMCs were isolated by a standard protocol described by Dias et al. (2018). The institutional review board of the Gonçalo Moniz Institution, Oswaldo Cruz Foundation (IGM-FIOCRUZ), in Salvador, Bahia, Brazil, approved all experimental protocols (No.031019/2013). All participants provided written informed consent prior to participation in the study.
To assess the cytotoxicity of the GLI inhibitor GANT61 (Sigma-Aldrich, St. Louis, MO, USA) in tumor and non-tumor cell lines, an alamarBlue assay (Sigma-Aldrich Chemical Co, St. Louis, MO, USA) was performed after 72 h of exposure to the inhibitor, as described by Ahmed et al., 1994 [46]. Cells were distributed on 96-well plates at a density of 7 × 10^4 cells/mL for adhered cells, and 3 × 10^5 cells/mL for cells in suspension. All tested compounds were dissolved in DMSO, added to wells containing 100 µL of cells in complete medium, and then incubated for 72 h. […] Absorbance was measured at 570 nm (reduced) and 595 nm (oxidized) wavelengths, using a Spectramax 190 plate reader (Molecular Devices; Sunnyvale, CA, USA).
Statistical analyses were performed, using GraphPad Prism v. […] Data were analyzed according to distribution along the normal Gaussian curve. […] Differences between groups resulting from in vitro assays were evaluated by ANOVA (analysis of variance) testing, followed by the Student–Newman–Keuls test. […]

The subject of assay [3] is HSC3 cells. Put plainly: Trypan blue exclusion cell viability assay. The method, then:
(§3) To study the effects of GANT61 on HSC3 cell viability, cycle, and death patterns, 4 mL of cellular solution (containing 0.7 × 10^5 cells/mL) was placed on 6-well plates and incubated overnight, to allow adhesion. […] For cell cycle analysis, the effects of GANT61 on HSC3 cells were also evaluated after 12 h of treatment. Negative controls were treated with the vehicle (0.2% DMSO) used to dilute the GLI inhibitor, and 5-fluorouracil (5-FU, 17 μM) was used as a positive control. All experiments were carried out in duplicate and repeated no less than three times. Cell viability was determined by the trypan blue exclusion method, in which 90 μL aliquots were collected at several incubation periods, stained with 10 μL trypan blue, and counted in a Neubauer chamber, under optical microscopy, at 20× magnification (Olympus CX41 Olympus, Tokyo, Japan).

For assay [4], the system named is CAF 1. Put plainly: alamarBlue cytotoxicity assay, cancer-associated fibroblasts CAF 1. The following applies: CAF 1, alamarBlue, 72 h of incubation. The protocol: (§4) Two cancer-associated fibroblast populations (CAF1 and CAF2) were obtained as described by Sobral et al. (2011), from fragments of squamous cell carcinoma of the tongue that were removed from patients seen at the UNICAMP School of Dentistry in Piracicaba, São Paulo, Brazil.
(§5) Specimens were washed with PBS, fragmented, and placed in 25 cm^2 cell culture flasks containing 1 mL of DMEM medium supplemented with 10% FBS and an antibiotic, and then maintained in an incubator, at 37 °C, under 5% CO2. Cell growth was monitored daily, and the medium was replaced every 2–3 days. […] Type I collagen production as assessed by ELISA was also used as a marker of myofibroblast activity. Both CAF1 and CAF2 primary populations were maintained for a maximum of 12 passages, with CAF phenotype maintenance evaluated through immunocytochemical staining for the α-SMA antibody after each two passages. […]
(§6) To assess the cytotoxicity of the GLI inhibitor GANT61 (Sigma-Aldrich, St. Louis, MO, USA) in tumor and non-tumor cell lines, an alamarBlue assay (Sigma-Aldrich Chemical Co, St. Louis, MO, USA) was performed after 72 h of exposure to the inhibitor, as described by Ahmed et al., 1994 [46]. […] Absorbance was measured at 570 nm (reduced) and 595 nm (oxidized) wavelengths, using a Spectramax 190 plate reader (Molecular Devices; Sunnyvale, CA, USA). […]

In assay [5] the test system is CAF 2. Put plainly: alamarBlue cytotoxicity assay, cancer-associated fibroblasts CAF 2. The following applies: CAF 2, alamarBlue, 72 h of incubation. The protocol:
as §4, §5, §6

Assay [6] relates to K562. Put plainly: alamarBlue cytotoxicity assay, K562. The following applies: 72 h of incubation. The method, then:
as §1, §2

Assay [7] concerns SCC9. Description: alamarBlue cytotoxicity assay, SCC9. The method, then: as §1, §2
Assay [8] concerns HepG2. Put plainly: alamarBlue cytotoxicity assay, HepG2. The following applies: 72 h of incubation. The protocol:
as §1, §2

For assay [9], the system named is HSC3 cells. Put plainly: Morphological analysis by flow cytometry (FSC/SSC). The protocol:
as §3
Morphological analysis of HSC3 cells was performed by flow cytometry, using FSC (size/volume) and SSC (granularity) parameters (FACSDiva). Cells were acquired (10,000 events/sample) and analyzed on a BD LSRFortessa flow cytometer, using the BD FACSDiva software version 6.2 (Becton Dickinson Biosciences, San José, CA, USA). Cellular debris was omitted from our analyses.

Some results are limits rather than exact numbers.

The IC50 is the concentration needed to halve the response being measured. Read a low IC50 as higher potency. In the case of `O=c1[nH]cc(F)c(=O)[nH]1` [5-FU, 5-fluorouracil], the IC50 in [1] (Homo sapiens) was 4.07 µM; in [2] (Homo sapiens), above 192 µM; in assay [4] (Homo sapiens, Fibroblast), above 192 µM; in assay [5] (Homo sapiens, Fibroblast), above 192 µM; in assay [6] (Homo sapiens), 18.1 µM; in assay [7] (Homo sapiens, SCC-9, 72 h of incubation) it was 143 µM. In assay [8] (Homo sapiens), this compound came in with an IC50 of 1.3 µM. Further, the “number of viable cells” value in assay [3] (17 µM, all incubation times) is reported as “reduced the number of viable cells”. Besides, the “cell morphology (FSC/SSC)” value in assay [9] (HSC3, 17 µM) was “changes consistent with apoptotic death”.

Take `CN(C)c1ccccc1CN1CCCN(Cc2ccccc2N(C)C)C1c1ccncc1` [GANT61]: the IC50 is above 116 µM in [1]; 87.5 µM in assay [2]; 3.67 µM in assay [4]; 71.5 µM in assay [5]; above 116 µM in [6]; 83.5 µM in assay [7] (72 h of incubation). The same compound registered an IC50 in [8] above 116 µM. In addition, the “viability of HSC3 cells” value in assay [3] (18 and 36 µM, 24, 48 and 72 h, vs 0.2% DMSO) is recorded as “significantly reduce the viability”. The “cell morphology (FSC/SSC)” value in assay [9] (HSC3, 18 and 36 µM, 24, 48 and 72 h) was “cell shrinkage”.
